Results as given in patent publication US8895548B2, “Pharmaceutical composition for treating alzheimer's disease” (Shionogi & Co., Ltd., priority 2007, dated 2014).

Key:
brain β amyloid 1-40 [1] = assay: Lowering effect on brain β amyloid in mice; type: in vivo; details: sc, male Crlj:CD-1(ICR) mouse, 100 mg/kg subcutaneously, brain isolated 3 hours after administration; for inhibition in vivo at 100 mg/kg: ELISA, read-out: reduction of brain β amyloid 1-40 compared to vehicle control group; for response vs control in vivo at 100 mg/kg: read-out: brain β amyloid 1-40, % of vehicle control group
Method: (§1) A test compound was suspended in 0.5% methylcellulose, the final concentration was adjusted to 2 mg/mL, and this was orally administered to male Crg:SD rat (7 to 9 week old) at 10 mg/kg. In a vehicle control group, only 0.5% methylcellulose was administered, and an administration test was performed at 3 to 8 animals per group. A brain was isolated 3 hours after administration, a cerebral hemisphere was isolated, a weight thereof was measured, the hemisphere was rapidly frozen in liquid nitrogen, and stored at −80° C. until the day for extraction. The frozen cerebral hemisphere was transferred to a homogenizer manufactured by Teflon (registered trade mark) under ice cooling, a 5-fold volume of a weight of an extraction buffer (containing 1% CHAPS ({3-[(3-chloroamidopropyl)dimethylammonio]-1-propanesulfonate}), 20 mM Tris-HCl (pH 8.0), 150 mM NaCl, Complete (Roche) protease inhibitor) was added, up and down movement was repeated, and this was homogenized to solubilize for 2 minutes. The suspension was transferred to a centrifugation tube, allowed to stand on an ice for 3 hours or more and, thereafter centrifuged at 100,000×g and 4° C. for 20 minutes. After centrifugation, the supernatant was transferred to an ELISA plate (product No. 27730, Immuno-Biological Laboratories) for measuring 3 amyloid 1-40. ELISA measurement was performed according to the attached instruction. The lowering effect was calculated as a ratio compared to the brain b amyloid 1-40 level of vehicle control group.
A test compound was suspended in 0.5% methylcellulose, the final concentration was adjusted to 10 mg/mL, and this was subcutaneously administered to back of male Crlj:CD-1(ICR) mouse (7 to 8 week old) at 100 mg/kg. In a vehicle control group, only 0.5% methylcellulose was administered. A test was performed at 4 to 8 animals per group. A brain was isolated 3 hours after administration. The subsequent operations were the same as in the above test in rat.

brain β amyloid 1-40 [2] = assay: Lowering effect on brain β amyloid in rats; type: in vivo; details: male Crg:SD rat, 10 mg/kg orally, brain isolated 3 hours after administration; for inhibition in vivo at 10 mg/kg: po, ELISA, read-out: reduction of brain β amyloid 1-40 compared to vehicle control group
Method: as §1

brain β amyloid 1-40 [3] = assay: Lowering effect on brain β amyloid in mice; type: in vivo; details: sc; male Crlj:CD-1(ICR) mouse, 3 hours after 30 mg/kg of subcutaneous administration; read-out: brain β amyloid 1-40, % of vehicle control group

`CC1(c2cc(Br)cc(NC(=O)c3ccc(Cl)cn3)c2)CCSC(N)=N1` (centres unmarked) [Compound 165] showed an inhibition in vivo at 100 mg/kg (brain β amyloid 1-40 [1]) of 60 to 90%.
Work on `C[C@]1(c2ccccc2)C[C@H](c2ccccc2)SC(N)=N1` (racemic) [Compound 835] yielded a melting point of 139 to 140 °C.
For `COC(=O)c1cc(C(=O)Nc2cccc(C3(C)CCSC(N)=N3)c2)nn1C` (centres unmarked) [Compound 687], the melting point was 164 to 187 °C.
For `CC1(c2cccc(NC(=O)c3ccc(F)cn3)c2)CCSC(N)=N1` (centres unmarked) [Compound 212], the inhibition in vivo at 10 mg/kg (brain β amyloid 1-40 [2]) was 60 to 90%.
Work on `CC1(C2C=C(/C=N/OCc3cccnc3)C=CC2)CCSC(N)=N1` (centres unmarked) [Compound 584] yielded a melting point of 152 to 153 °C.
For `Cc1cc(C(=O)Nc2ccc(F)c(C3(C)CCSC(N)=N3)c2)c(C)o1` (centres unmarked) [Compound 1282], the inhibition in vivo at 10 mg/kg (brain β amyloid 1-40 [2]) was 60 to 90%.
In the case of `CC1(c2ccc(F)c(C(=O)NC3=CC(Cl)CC=N3)c2)CCSC(N)=N1` (centres unmarked) [Compound 1068], the melting point is reported as 132 to 134 °C.
In the case of `CC1(c2ccc(F)c(N3N=C4c5cc(Cl)ccc5NCC4C3=O)c2)CCSC(N)=N1` (centres unmarked) [Compound 1166], the melting point is reported as 290 to 295 °C.
Compound `CC1(c2cc(NC(=O)c3ccc(Cl)cn3)ccc2F)CCSC(N)=N1` (centres unmarked) [Compound 1043] has a response vs control in vivo at 100 mg/kg (brain β amyloid 1-40 [1]) of 15%.
With `CC1(c2cccc(NC(=O)c3cnc(N=[N+]=N)cn3)c2)CCSC(N)=N1` (centres unmarked) [Compound 1266] the inhibition in vivo at 100 mg/kg (brain β amyloid 1-40 [1]) was 60 to 90%.
Work on `CC1(C2=CC=CCC2)CCCSC(N)=N1.Cl` (centres unmarked) yielded a melting point of 223 to 225 °C.
With `CC1(c2cccc(NC(=O)c3ncc(Cl)cn3)c2)CCSC(N)=N1` (centres unmarked) [Compound 515] the melting point was 204 to 208 °C.
`CC1(c2cc(NC(=O)c3ccc(C(F)(F)F)cn3)ccc2F)CCSC(N)=N1` (centres unmarked) [Compound 396] gave a response vs control in vivo at 100 mg/kg (brain β amyloid 1-40 [1]) of 38.4%.
Compound `C[C@]1(c2ccccc2)C[C@@H](c2ccccc2)SC(N)=N1.Cl` has a melting point of 161 to 165 °C.
`CC1(c2ccccc2)CCN=C(N)S1.Cl` (centres unmarked) [Compound 783] gave a melting point of 205 to 206 °C.
Work on `CC1(c2cccc(NC(=O)c3ccc(C#N)cn3)c2)CCSC(N)=N1` (centres unmarked) [Compound 651] yielded a response vs control in vivo at 30 mg/kg (brain β amyloid 1-40 [3]) of 52.3%.
Work on `C[C@@]1(c2cccc(NC(=O)c3ncc(Cl)cc3Cl)c2)CCSC(N)=N1` [Compound 39] yielded an inhibition in vivo at 10 mg/kg (brain β amyloid 1-40 [2]) of 60 to 90%.
Work on `Cc1cnc(C(=O)Nc2ccc(F)c(C3(C)CCSC(N)=N3)c2)cn1` (centres unmarked) [Compound 359] yielded an inhibition in vivo at 10 mg/kg (brain β amyloid 1-40 [2]) of 60 to 90%.
Work on `Cc1ccc(OC2=CCC(C3(C)CCSC(N)=N3)C=C2)cc1` (centres unmarked) [Compound 1067] yielded a melting point of 162 to 165 °C.
Work on `CC1(c2cc(NC(=O)c3ccc(Cl)cn3)cc(C(F)(F)F)c2)C=C(N)SCC1` (centres unmarked) [Compound 964] yielded a melting point of 185 to 187 °C and an inhibition in vivo at 100 mg/kg (brain β amyloid 1-40 [1]) of 60 to 90%.
Work on `CCS/C(N)=N\C(C)C1C=C(NC(=O)c2cnc3ccccc3n2)C=CC1` (centres unmarked) [Compound 1115] yielded a melting point of 167 to 170 °C.
In the case of `CC1(c2ccc(OC3C=CC=CC3)cc2)CCSC(N)=N1` (centres unmarked) [Compound 1055], the melting point is reported as 169 to 170 °C.
`COc1ccc([C@]2(C)N=C(N)SC[C@H]2C)cc1` [Compound 8] showed a melting point of 214 to 217 °C.
For `CC1(c2cccc(NC(=O)c3ccc(Cl)cn3)c2)CCSC(N)=N1` (centres unmarked) [Compound 793], the inhibition in vivo at 10 mg/kg (brain β amyloid 1-40 [2]) was 60 to 90%.
Compound `CC1(C2=CC=C(F)CC2)CCCSC(N)=N1.Cl` (centres unmarked) has a melting point of 219 to 222 °C.
`CC1(c2cc(NC(=O)c3ccc(F)cn3)ccc2F)CCSC(N)=N1` (centres unmarked) [Compound 605] gave a response vs control in vivo at 100 mg/kg (brain β amyloid 1-40 [1]) of 36.5%.
Work on `CC1(c2cc(Br)cc(NC(=O)c3ccc(Br)cc3)c2)CCSC(N)=N1` (centres unmarked) [Compound 1262] yielded an inhibition in vivo at 100 mg/kg (brain β amyloid 1-40 [1]) of 60 to 90%.
In the case of `CC1(c2cccc(NC(=O)c3ncc(Cl)cc3Cl)c2)CCSC(N)=N1` (centres unmarked) [Compound 127], the response vs control in vivo at 100 mg/kg (brain β amyloid 1-40 [1]) is reported as 25.2%.
Work on `CC1(c2cccc(NC(=O)c3ccc(C(F)(F)F)cn3)c2)CCSC(N)=N1` (centres unmarked) [Compound 1244] yielded a response vs control in vivo at 100 mg/kg (brain β amyloid 1-40 [1]) of 50.1%.
`Cc1cnc(C(=O)Nc2cccc(C3(C)CCSC(N)=N3)c2)cn1` (centres unmarked) [Compound 309] gave an inhibition in vivo at 100 mg/kg (brain β amyloid 1-40 [1]) of 60 to 90%.
`COc1cnc(C(=O)Nc2cccc(C3(C)CCSC(N)=N3)c2)cn1` (centres unmarked) [Compound 243] gave an inhibition in vivo at 10 mg/kg (brain β amyloid 1-40 [2]) of 60 to 90%.
`CC1(c2cccc(NC(=O)c3ncc(Br)cn3)c2)CCSC(N)=N1` (centres unmarked) [Compound 900] showed an inhibition in vivo at 100 mg/kg (brain β amyloid 1-40 [1]) of 60 to 90%.
For `Cc1cnc(C(=O)Nc2ccc(F)c([C@]3(C)CCSC(N)=N3)c2)cn1` [Compound 622], the “brain β amyloid 1-40, % of vehicle control group” value (brain β amyloid 1-40 [2]) was 50.1 % of vehicle control group.
For `C[C@@]1(c2cc(NC(=O)c3n[nH]c4ccccc34)ccc2F)CCSC(N)=N1` [Compound 241], the melting point was 187 to 190 °C.
`CC1(c2cccc(CO)c2)CCSC(N)=N1` (centres unmarked) [Compound 501] gave a melting point of 155 to 158 °C.
For `COc1cnc(C(=O)Nc2ccc(F)c([C@]3(C)CCSC(N)=N3)c2)cn1` [Compound 634], the “brain β amyloid 1-40, % of vehicle control group” value (brain β amyloid 1-40 [2]) was 21.1 % of vehicle control group.
Compound `COc1ccc([C@@]2(C)C[C@H](C)SC(N)=N2)cc1` [Compound 86] has a melting point of 141 to 142 °C.
Compound `CC1(c2cc(Cl)cc(NC(=O)c3ccc(Cl)cn3)c2)CCSC(N)=N1` (centres unmarked) [Compound 739] has an inhibition in vivo at 100 mg/kg (brain β amyloid 1-40 [1]) of 60 to 90%.
With `CC1(c2cccc(NC(=O)c3ncc(C(F)(F)F)cc3Cl)c2)CCSC(N)=N1` (centres unmarked) [Compound 482] the inhibition in vivo at 10 mg/kg (brain β amyloid 1-40 [2]) was 60 to 90%.
`CC1(c2cccc(NC(=O)C3CN=CC=N3)c2)CCSC(N)=N1` (centres unmarked) [Compound 164] gave a melting point of 91 to 96 °C.
In the case of `CC1(c2cccc(C(=O)Nc3ccc(Cl)cn3)c2)CCSC(N)=N1` (centres unmarked) [Compound 220], the inhibition in vivo at 100 mg/kg (brain β amyloid 1-40 [1]) is reported as 60 to 90%.
With `C[C@@]1(c2cccc(NC(=O)c3cnc(O)cn3)c2)CCSC(N)=N1` [Compound 733] the inhibition in vivo at 10 mg/kg (brain β amyloid 1-40 [2]) was 60 to 90%.
`CC1(c2cc(NC(=O)c3ccc(Cl)cn3)ccc2Cl)CCSC(N)=N1` (centres unmarked) [Compound 1199] showed a response vs control in vivo at 100 mg/kg (brain β amyloid 1-40 [1]) of 14.1%.
`CC1(c2cc(Br)cc(NC(=O)c3cc4ccccc4s3)c2)CCSC(N)=N1` (centres unmarked) [Compound 1014] showed an inhibition in vivo at 100 mg/kg (brain β amyloid 1-40 [1]) of 60 to 90%.
Work on `CC1(c2cc(NC(=O)c3ncc(Cl)cn3)ccc2F)CCSC(N)=N1` (centres unmarked) [Compound 204] yielded an inhibition in vivo at 10 mg/kg (brain β amyloid 1-40 [2]) of 60 to 90%.
`C[C@@]1(C2C=C(NC(=O)c3ncc(Cl)cc3N)C=CC2)CCSC(N)=N1` (some centres unmarked) [Compound 743] showed a melting point of 148 to 150 °C.
